Measurements: patent publication US7608278B2, “Formulations of hydrophobic proteins in an immunogenic composition having improved tolerability” (priority 2003, dated 2009)

How the values were obtained:
[1] = test system: rat footpad; assay: Rat footpad (paw-lick) pain test; type: in vivo, Male Sprague Dawley rats
Text: An animal model, the rat paw-lick (footpad) model, which has previously been employed for detection of pain associated with the injection of antibiotics, was utilized (Celozzi et al. J. Pharmacol. Methods, 1980, 4:[…]; Comerski et al., Fundamental and Appl. Toxicology, 1986, 6:335-338). This model monitors the amount of time the rats spend lifting, licking, and biting the injected paw.
The “rat footpad pain” or “rat paw-lick” test or model as used herein refers to a test or model used to determine the pain induced by a specific formulation upon injection. The test consists of uniformly injecting into the footpad of rats of the same species and approximately the same weights compositions to be assessed as pain causing agents along with compositions known to cause pain at the injection site, as well as compositions known not to cause pain at the injection site. A statistically significant number of animals are to be used for each test and control formulation. After the injection, the animal is placed in a cage with mirrors and then observed by a technician (preferably blinded as to the identity of the immunogenic composition) for 20 to 30 minutes for flinching, lifting, licking, or biting of the injected paw. The amount of time spent on these pain response behaviors are recorded using a stopwatch and summed for 10 minute periods.
The phrase “less painful” as used herein refers to an alteration in the composition that leads to a reduction in the length of time or intensity, or both, of a pain response compared to that of the non-altered composition as measured by the rat footpad pain test. The phrase “50% reduction in pain” as used herein refers to a 50% reduction in the amount of time spent on pain responses as measured by the rat footpad pain test when comparing altered and unaltered immunogenic compositions administered in equal injection volumes by the same means and observed for the same length of time. The number of animals in each group is a statistically significant number. Observation of the different injection groups is preferably done by the same technician and who is blinded as to the identification of the compositions.
Rat footpad pain testing. The immunogenic composition samples were brought to room temperature prior to being administered to the animals. The animals were injected by a technician who was not involved in the monitoring of pain responses. Male Sprague Dawley rats (Crl:CD®(SD)IGS BR, 50-100 g at arrival) from Charles River Laboratories Inc. (Kingston, N.Y.) were used for all studies. The rats were acclimated at the research facility for approximately one week prior to initiation of a study, at which point they weighed 100-150 g. The paw to be injected was examined prior to injection to verify absence of any injury. The animal was then restrained in the technician's arm such that the hind legs extended forward. The right rear leg was grasped just above the hock joint and pressure was exerted to hold the paw straight out, with plantar (sole) facing upwards. Using a new 23 gauge needle for each animal, the operator inserted the bevel side up in the center of paw, parallel to the surface of the paw, until the needle was in the center of the pad. The material was then injected and the needle left in place for 3-5 seconds prior to withdrawal, to minimize leakage from the injection site. […]
The animal was then placed in a cage with 3 mirrors (adjoining sides and floor) and observed by a different technician (blinded as to the identity of the immunogenic composition) for 30 minutes for flinching, lifting, licking, or biting of the injected paw. The length of time spent on these pain response behaviors was recorded using a stopwatch and summed for 10 minute periods. […]
Statistical Analysis. Results were analyzed using an ANOVA method adjusting for multiple comparisons that compared each treatment group with control group who received buffer alone (either PBS or TBS). […]

[2] = known critical micelle concentrations; cited from earlier work
[3] = Example 9 (Table 16), concentration 0.02%, 200 μl, 8 rats per group

## Polyoxyethylene (35) Lauryl Ether [BRIJ]
[1]; [3]
  Mean time pain response, 0-10 min.: 1 s
  Mean time pain response, 10-20 min.: 0 sec.
[1]; Example 9, injected at concentrations above the CMC for the detergent
  Pain in rat footpad model, survey of detergents (result in words): do not cause significant pain
[2]
  CMC: 0.09 mM
  CMC (%): 0.011%
